Tests used:
[1] = target: Melanocortin receptor 4 (Homo sapiens, UniProt P32245); assay: Displacement of [125I]NDP-MSH from human MC4R expressed in HEK293 cells; type: cell-based
[2] = Intrinsic clearance in rat liver microsome; type: ADME; conditions: liver microsomes
[3] = Oral bioavailability in rat; type: ADME, organism-based; conditions: in vivo
[4] = target: Melanocortin receptor 3 (Homo sapiens, UniProt P41968); assay: Displacement of [125I]NDP-MSH from human MC3R expressed in HEK293 cells; type: cell-based
Sequence of Melanocortin receptor 3 (P41968 whole entry): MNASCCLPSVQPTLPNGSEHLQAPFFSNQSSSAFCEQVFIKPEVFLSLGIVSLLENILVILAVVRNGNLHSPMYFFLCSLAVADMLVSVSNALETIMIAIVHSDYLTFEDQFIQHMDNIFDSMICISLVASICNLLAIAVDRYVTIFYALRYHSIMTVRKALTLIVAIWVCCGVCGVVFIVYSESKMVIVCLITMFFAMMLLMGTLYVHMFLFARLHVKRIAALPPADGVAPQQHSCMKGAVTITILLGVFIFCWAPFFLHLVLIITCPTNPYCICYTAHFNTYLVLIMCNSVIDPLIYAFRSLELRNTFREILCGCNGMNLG

[5] = target: Melanocortin receptor 5 (Homo sapiens, UniProt P33032); assay: Displacement of [125I]NDP-MSH from human MC5R expressed in HEK293 cells; type: cell-based
Sequence of Melanocortin receptor 5 (P33032 whole entry): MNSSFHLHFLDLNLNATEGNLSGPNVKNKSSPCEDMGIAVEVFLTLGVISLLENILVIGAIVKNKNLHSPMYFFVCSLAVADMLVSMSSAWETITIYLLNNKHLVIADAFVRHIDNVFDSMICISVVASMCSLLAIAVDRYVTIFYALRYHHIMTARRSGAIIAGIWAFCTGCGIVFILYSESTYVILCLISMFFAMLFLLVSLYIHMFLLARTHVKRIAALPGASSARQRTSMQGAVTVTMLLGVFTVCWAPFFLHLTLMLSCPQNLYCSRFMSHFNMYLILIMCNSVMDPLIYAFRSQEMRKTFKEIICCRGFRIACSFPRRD

Sequence of Melanocortin receptor 4 (P32245 whole entry): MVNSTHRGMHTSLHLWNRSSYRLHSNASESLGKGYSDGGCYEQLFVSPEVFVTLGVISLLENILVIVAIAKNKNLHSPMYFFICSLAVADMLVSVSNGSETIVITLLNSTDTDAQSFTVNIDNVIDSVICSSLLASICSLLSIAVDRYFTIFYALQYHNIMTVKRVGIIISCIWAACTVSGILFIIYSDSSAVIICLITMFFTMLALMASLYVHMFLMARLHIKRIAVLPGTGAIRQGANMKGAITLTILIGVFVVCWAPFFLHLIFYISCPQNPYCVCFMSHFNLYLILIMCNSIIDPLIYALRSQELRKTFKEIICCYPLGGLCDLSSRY

SMILES | Ki [1] | also measured
COc1ccccc1CCNCc1ccccc1N1CCN(C(=O)[C@@H](Cc2ccc(Cl)cc2Cl)NC(=O)CCN)CC1 | 0.0016 µM | –
CC(C)NC(=O)NCc1cccnc1N1CCN(C(=O)[C@@H](Cc2ccc(Cl)cc2Cl)NC(=O)CCN)CC1 | 1.3 µM | –
CCC(CO)NCc1cccnc1N1CCN(C(=O)[C@@H](Cc2ccc(Cl)cc2Cl)NC(=O)CCN)CC1 (stereo not given in full) | 0.71 µM | –
NCCC(=O)N[C@H](Cc1ccc(Cl)cc1Cl)C(=O)N1CCN(c2ncccc2CNCCO)CC1 | 0.52 µM | –
NCCC(=O)N[C@H](Cc1ccc(Cl)cc1Cl)C(=O)N1CCN(c2ncccc2CNC(=O)NCc2cccs2)CC1 | 0.75 µM | –
COCC(C)NCc1ccccc1N1CCN(C(=O)[C@@H](Cc2ccc(Cl)cc2Cl)NC(=O)CCN)CC1 (stereo not given in full) | 0.0088 µM | –
CC(CO)NCc1cccnc1N1CCN(C(=O)[C@@H](Cc2ccc(Cl)cc2Cl)NC(=O)CCN)CC1C (stereo not given in full) | 0.42 µM | –
CC(=O)NCc1cccnc1N1CCN(C(=O)[C@@H](Cc2ccc(Cl)cc2Cl)NC(=O)CCN)CC1 | 2.8 µM | –
NCCC(=O)N[C@H](Cc1ccc(Cl)cc1Cl)C(=O)N1CCN(c2ncccc2CNC(=O)Oc2ccccc2)CC1 | 1.2 µM | –
NCCC(=O)N[C@H](Cc1ccc(Cl)cc1Cl)C(=O)N1CCN(c2ncccc2CNC(=O)OCc2ccccc2)CC1 | 0.44 µM | –
COc1ccccc1CCNCc1cccnc1N1CCN(C(=O)[C@@H](Cc2ccc(Cl)cc2Cl)NC(C)=O)CC1 | 0.01 µM | CLint scaled [2]: 3500 mL/min/kg; bioavailability [3]: 0%
COCC(C)NCc1cccnc1N1CCN(C(=O)[C@@H](Cc2ccc(Cl)cc2Cl)NC(C)=O)CC1 (stereo not given in full) | 0.18 µM | –
NCCC(=O)N[C@H](Cc1ccc(Cl)cc1Cl)C(=O)N1CCN(c2ncccc2CNC(=O)Nc2ccccc2)CC1 | 0.71 µM | –
NCCC(=O)N[C@H](Cc1ccc(Cl)cc1Cl)C(=O)N1CCN(c2ncccc2CNCC(F)(F)F)CC1 | 0.17 µM | –
COc1ccccc1NC(=O)NCc1cccnc1N1CCN(C(=O)[C@@H](Cc2ccc(Cl)cc2Cl)NC(=O)CCN)CC1 | 1.3 µM | –
CC(C)(CO)NCc1cccnc1N1CCN(C(=O)[C@@H](Cc2ccc(Cl)cc2Cl)NC(=O)CCN)CC1 | 0.48 µM | –
CCC(COC)NCc1cccnc1N1CCN(C(=O)[C@@H](Cc2ccc(Cl)cc2Cl)NC(=O)CCN)CC1 (stereo not given in full) | 0.2 µM | –
COc1ccccc1CNC(=O)NCc1cccnc1N1CCN(C(=O)[C@@H](Cc2ccc(Cl)cc2Cl)NC(=O)CCN)CC1 | 0.56 µM | –
COc1ccccc1CCNCc1cccnc1N1CCN(C(=O)[C@@H](Cc2ccc(Cl)cc2Cl)NC(=O)CCN)CC1 | 0.0067 µM | CLint scaled [2]: 390 mL/min/kg; Ki [4]: 5 µM; bioavailability [3]: 15%; Ki [5]: 2.1 µM
COc1ccccc1OC(=O)NCc1cccnc1N1CCN(C(=O)[C@@H](Cc2ccc(Cl)cc2Cl)NC(=O)CCN)CC1 | 1.8 µM | –
NCCC(=O)N[C@H](Cc1ccc(Cl)cc1Cl)C(=O)N1CCN(c2ncccc2CNCCc2ccccc2F)CC1 | 0.012 µM | –
COCC(C)NCc1cccnc1N1CCN(C(=O)[C@@H](Cc2ccc(Cl)cc2Cl)NC(=O)CCN)CC1 (stereo not given in full) | 0.087 µM | –
CC(=O)N[C@H](Cc1ccc(Cl)cc1Cl)C(=O)N1CCN(c2ncccc2CNCCc2cccs2)CC1 | 0.021 µM | –
NCCC(=O)N[C@H](Cc1ccc(Cl)cc1Cl)C(=O)N1CCN(c2ncccc2CNC(CO)CO)CC1 | 1.5 µM | –
NCCC(=O)N[C@H](Cc1ccc(Cl)cc1Cl)C(=O)N1CCN(c2ncccc2CNCCc2cccs2)CC1 | 0.015 µM | –

Further lines, with some results ahead:

Ki [1] | SMILES | also measured
2.6 µM | NCCC(=O)N[C@H](Cc1ccc(Cl)cc1Cl)C(=O)N1CCN(c2ncccc2CNC(=O)c2ccco2)CC1 | –
2.2 µM | NCCC(=O)N[C@H](Cc1ccc(Cl)cc1Cl)C(=O)N1CCN(c2ncccc2CNC(=O)c2ccc(F)cc2)CC1 | –
0.36 µM | COc1ccccc1CC(=O)NCc1cccnc1N1CCN(C(=O)[C@@H](Cc2ccc(Cl)cc2Cl)NC(=O)CCN)CC1 | –
1 µM | NCCC(=O)N[C@H](Cc1ccc(Cl)cc1Cl)C(=O)N1CCN(c2ncccc2CNC(=O)Cc2ccc(F)cc2)CC1 | –
1.1 µM | NCCC(=O)N[C@H](Cc1ccc(Cl)cc1Cl)C(=O)N1CCN(c2ncccc2CNC(=O)Nc2ccccc2F)CC1 | –
1 µM | NCCC(=O)N[C@H](Cc1ccc(Cl)cc1Cl)C(=O)N1CCN(c2ncccc2CNC(=O)NCc2ccccc2F)CC1 | –
0.55 µM | COc1ccc(CC(=O)NCc2cccnc2N2CCN(C(=O)[C@@H](Cc3ccc(Cl)cc3Cl)NC(=O)CCN)CC2)cc1 | –
1.5 µM | COc1ccc(C(=O)NCc2cccnc2N2CCN(C(=O)[C@@H](Cc3ccc(Cl)cc3Cl)NC(=O)CCN)CC2)cc1 | –
0.45 µM | NCCC(=O)N[C@H](Cc1ccc(Cl)cc1Cl)C(=O)N1CCN(c2ncccc2CNC(=O)Cc2ccccc2F)CC1 | –
2.8 µM | COCC(=O)NCc1cccnc1N1CCN(C(=O)[C@@H](Cc2ccc(Cl)cc2Cl)NC(=O)CCN)CC1 | –
1.8 µM | NCCC(=O)N[C@H](Cc1ccc(Cl)cc1Cl)C(=O)N1CCN(c2ncccc2CNC(=O)c2cccs2)CC1 | –
0.13 µM | NCCC(=O)N[C@H](Cc1ccc(Cl)cc1Cl)C(=O)N1CCN(c2ncccc2CNCc2ccccc2F)CC1 | –
1.8 µM | NCCC(=O)N[C@H](Cc1ccc(Cl)cc1Cl)C(=O)N1CCN(c2ncccc2CNC(=O)c2ccccc2)CC1 | –
0.31 µM | NCCC(=O)N[C@H](Cc1ccc(Cl)cc1Cl)C(=O)N1CCN(c2ncccc2CNC(=O)Cc2cccs2)CC1 | –

From ChEMBL document CHEMBL1138938, “Design, synthesis, and SAR studies on a series of 2-pyridinylpiperazines as potent antagonists of the melanocortin-4 receptor” (Bioorg Med Chem Lett, 2006)
